Experimental findings from patent publication US20090105301A1, “9A-SUBSTITUTED AZALIDES FOR THE TREATMENT OF MALARIA” (priority 2006, published 2009) are described below.

Converted amounts (≈) assume the structure as drawn. Counter-ions that a name gives are not always drawn.

Common to all, as to format: cell-based, Plasmodium falciparum
In one assay the test system is P. falciparum TM91C235. The assay can be described thus: In vitro screening protocol I, [3H]-hypoxanthine incorporation, TM91C235. Conditions: In vitro screening protocol I, P. falciparum TM91C235; for IC50: Plasmodium falciparum, read-out: IC50 TM91C235. From the text:
(§1) Agents Chemother. 27 (4) (1985) 525-530). The system was limited to the assessment of the intrinsic activity against the erythrocytic asexual life cycle (blood schizontocides). Two Plasmodium falciparum clones from CDC/Indochina III (W-2) and CDC/Sierra Leone I (D-6) (Oduola A M, Weatherly N F, Bowdre J H, Desjardins R E. Plasmodium falciparum: cloning by single-erythrocyte micromanipulation and heterogeneity in vitro. Exp Parasitol. 66 (1) (1988) 86-95) were used for all assays. TM91C235, a multiple drug resistant isolate from Thailand (Antimicrob. Agents Chemother. 46 (8) (2002) 2627 and Antimicrob. Agents Chemother. 43 (3) (1999) 598-602), was used for the prescreening assay. W-2 is resistant to chloroquine, quinine, and pyrimethamine and susceptible to mefloquine. D-6 tends to be more resistant to mefloquine and susceptible to chloroquine, quinine, and pyrimethamine. All documents cited in this paragraph are incorporated by reference in their entirety.
(§2) All parasites were maintained in continuous long term cultures in RPMI-1640 medium supplemented with 6% washed human A positive (A+)(erythrocytes, 25 mM Hepes, […], and 10% heat inactivated A+ human plasma or ALBUMAX® (lipid-rich bovine serum albumin; Invitrogen, Carlsbad, Calif.). All cultures and assays were conducted at 37° C. under an atmosphere of 5% CO2 and 5% O2, with a balance of N2.
(§3) The prescreening assay uses TM91C235 diluted at a 0.4% parasitemia in a 1% hematocrit in folic acid free and p-aminobenzoic acid free media RPMI-1640 and ALBUMAX®. […] The compound is further diluted in folate free (FF) culture medium with ALBUMAX® for the first initial starting concentration. The rest of the stock drug solution was kept at −70° C. The isolate was preexposed, in duplicate, at three concentrations (25,000 ng/ml, 2,500 ng/ml, and […]) of the test compound for 48 hr in a 96-well microtiter plate (MTP) using the BIOMEK® 2000 automated laboratory workstation. Each MTP contains chloroquine as control to assess the relative activity of the compound and to monitor the response of TM91C235.
(§4) After the preincubation, [^3H]-hypoxanthine was added to each well of the MTP. (The assay relies on the incorporation of radiolabeled hypoxanthine by the parasites, which indicates reproduction, and inhibition of isotope incorporation was attributed to activity of known or candidate antimalarial drugs). After 72 hours of total incubation time, the MTP were frozen to lyse the erythrocytes and parasites. The parasite DNA was recovered by harvesting the lysate onto glass-fiber filter plates using a Packard FilterMate™ Cell Harvester. The radioactivity was counted on a Packard TopCount™ microplate scintillation counter.
(§5) The serial dilution assay was conducted using the same assay conditions and stock solution of the compound used for the preliminary screen, described above. Both the D-6 and the W-2 clones were used. The compounds were diluted two-fold over 11 different concentration ranges with a starting concentration that was based on the preliminary screen. For each drug, the concentration response profile was determined and 50% inhibitory concentrations (IC50) were determined by using a non-linear, logistic dose response analysis program. […] For each assay, the IC50 for each clone was determined against the known antimalarials chloroquine and mefloquine. These control values established the compound's relative parasite susceptibility profile compared to known antimalarials. […]

Assay [1] relates to P. falciparum D6 (CDC/Sierra Leone I, D-6). The assay can be described thus: In vitro screening protocol I, [3H]-hypoxanthine incorporation, D6. The settings on record: In vitro screening protocol I, P. falciparum D6; for IC50: Plasmodium falciparum, read-out: IC50 D6.
From the text: as §1, §2, §3, §4, §5

For assay [2], the system named is P. falciparum W2 (CDC/Indochina III, W-2). The assay can be described thus: In vitro screening protocol I, [3H]-hypoxanthine incorporation, W2. The settings on record: In vitro screening protocol I, P. falciparum W2; for IC50: Plasmodium falciparum, read-out: IC50 W2.
From the text: as §1, §2, §3, §4, §5

For the compound `CC[C@H]1OC(=O)[C@H](C)[C@@H](O[C@H]2C[C@@](C)(OC)[C@@H](O)[C@H](C)O2)[C@H](C)[C@@H](O[C@@H]2O[C@H](C)C[C@H](NC)[C@H]2O)[C@](C)(O)C[C@@H](C)CN(CCCNc2ccnc3ccccc23)[C@H](C)[C@@H](O)[C@]1(C)O` [Example 25, 9a-[3-(Quinolin-4-yl-amino)propyl]-3′-N-demethyl-9-deoxo-9-dihydro-9a-aza-9a-homoerythromycin A], the IC50 (commonly the concentration needed to halve the response being measured) was in the range of 0.2 to 1 µg/mL (≈ 0.221 to 1.1 µM) in the assay with P. falciparum TM91C235, 1 to 2.5 µg/mL (≈ 1.1 to 2.76 µM) in assay [1] and 1 to 2.5 µg/mL (≈ 1.1 to 2.76 µM) in assay [2].

In the case of `CC[C@H]1OC(=O)[C@H](C)[C@@H](O[C@H]2C[C@@](C)(OC)[C@@H](O)[C@H](C)O2)[C@H](C)[C@@H](O[C@@H]2O[C@H](C)C[C@H](N(C)C)[C@H]2O)[C@](C)(O)C[C@@H](C)CN(CCCNCc2ccccn2)[C@H](C)[C@@H](O)[C@]1(C)O` [Example 18, 9a-{3-[(Pyridin-2-yl-methyl)amino]propyl}-9-deoxo-9-dihydro-9a-aza-9a-homoerythromycin A], the values for the half-inhibitory concentration (IC50) (in the assay with P. falciparum TM91C235; in assay [1]; in assay [2]) were 1 to 2.5 µg/mL (≈ 1.13 to 2.83 µM), 1 to 2.5 µg/mL (≈ 1.13 to 2.83 µM) and 0.2 to 1 µg/mL (≈ 0.226 to 1.13 µM), respectively.

As for `CCOc1ccc2ccccc2c1CNCCCN1C[C@H](C)C[C@@](C)(O)[C@H](O[C@@H]2O[C@H](C)C[C@H](N(C)C)[C@H]2O)[C@@H](C)[C@H](O[C@H]2C[C@@](C)(OC)[C@@H](O)[C@H](C)O2)[C@@H](C)C(=O)O[C@H](CC)[C@@](C)(O)[C@H](O)[C@H]1C` [Example 7, 9a-[3-({[2-(Ethyloxy)-naphthalen-1-yl]methyl}amino)propyl]-9-deoxo-9-dihydro-9a-aza-9a-homoerythromycin A], the IC50 (in the assay on P. falciparum TM91C235; in assay [1]; in assay [2]) was less than 0.1 µg/mL in each case.

As for `CC[C@H]1OC(=O)[C@H](C)[C@@H](O[C@H]2C[C@@](C)(OC)[C@@H](O)[C@H](C)O2)[C@H](C)[C@@H](O[C@@H]2O[C@H](C)C[C@H](N(C)C)[C@H]2O)[C@](C)(O)C[C@@H](C)CN(CCCNC(=O)Cc2cccc3ccccc23)[C@H](C)[C@@H](O)[C@]1(C)O` [Example 29, 9a-{3-[(Naphtalen-1-yl-acetyl)amino]propyl}-9a-aza-9-deoxo-9-dihydro-9a-homoerythromycin A Formiate Salt], the concentration for half-maximal inhibition (IC50) in the assay with P. falciparum TM91C235 is less than 0.1 µg/mL; in assay [1], 0.2 to 1 µg/mL; in assay [2], 0.2 to 1 µg/mL.

For the compound `CC[C@H]1OC(=O)[C@H](C)[C@@H](O[C@H]2C[C@@](C)(OC)[C@@H](O)[C@H](C)O2)[C@H](C)[C@@H](O[C@@H]2O[C@H](C)C[C@H](N(C)C)[C@H]2O)[C@](C)(O)C[C@@H](C)CN(CCCNC(=O)CCc2ccccc2)[C@H](C)[C@@H](O)[C@]1(C)O` [Example 27, 9a-{3-[(3-Phenylpropanoyl)amino]propyl}-9a-aza-9-deoxo-9-dihydro-9a-homoerythromycin A Formiate Salt], the results for the IC50 (in the assay with P. falciparum TM91C235; in assay [1]; in assay [2]) were less than 0.1 µg/mL, 0.2 to 1 µg/mL and 0.2 to 1 µg/mL, respectively.

Consider `CC[C@H]1OC(=O)[C@H](C)[C@@H](O[C@H]2C[C@@](C)(OC)[C@@H](O)[C@H](C)O2)[C@H](C)[C@@H](O[C@@H]2O[C@H](C)C[C@H](N(C)C)[C@H]2O)[C@](C)(O)C[C@@H](C)CN(CCCNC(=O)CCCCc2ccccc2)[C@H](C)[C@@H](O)[C@]1(C)O` [Example 31, 9a-{3-[(5-Phenylpentanoyl)amino]propyl}-9a-aza-9-deoxo-9-dihydro-9a-homoerythromycin A Formiate Salt], for which the IC50 in the assay with P. falciparum TM91C235 is less than 0.1 µg/mL; in assay [1] it was 0.2 to 1 µg/mL; in assay [2], 0.1 to 0.2 µg/mL.

For `CC[C@H]1OC(=O)[C@H](C)[C@@H](O[C@H]2C[C@@](C)(OC)[C@@H](O)[C@H](C)O2)[C@H](C)[C@@H](O[C@@H]2O[C@H](C)C[C@H](N(C)C)[C@H]2O)[C@](C)(O)C[C@@H](C)CN(CCC(=O)NCCc2ccccc2)[C@H](C)[C@@H](O)[C@]1(C)O` [Example 39], the IC50 (in the assay on P. falciparum TM91C235; in assay [1]; in assay [2]) was 0.2 to 1 µg/mL (≈ 0.22 to 1.1 µM) in each case.

Turning to `CC[C@H]1OC(=O)[C@H](C)[C@@H](O[C@H]2C[C@@](C)(OC)[C@@H](O)[C@H](C)O2)[C@H](C)[C@@H](O[C@@H]2O[C@H](C)C[C@H](N(C)C)[C@H]2O)[C@](C)(O)C[C@@H](C)CN(CCCNc2ccnc3cc(Cl)ccc23)[C@H](C)[C@@H](O)[C@]1(C)O` [Example 21A, 9a-{3-[(7-Chloro-quinolin-4-yl)amino]propyl}-9-deoxo-9-dihydro-9a-aza-9a-homoerythromycin A], the IC50 (in the assay with P. falciparum TM91C235; in assay [1]; in assay [2]) was less than 0.1 µg/mL each time.

`CC[C@H]1OC(=O)[C@H](C)[C@@H](O[C@H]2C[C@@](C)(OC)[C@@H](O)[C@H](C)O2)[C@H](C)[C@@H](O[C@@H]2O[C@H](C)C[C@H](N(C)C)[C@H]2O)[C@](C)(O)C[C@@H](C)CN(CCCNCc2cccnc2)[C@H](C)[C@@H](O)[C@]1(C)O` [Example 12, 9a-{3-[(Pyridine-3-yl-methyl)amino]propyl}-9-deoxo-9-dihydro-9a-aza-9a-homoerythromycin A]: in the assay with P. falciparum TM91C235, the “IC50 TM91C235” value is given as “C (200 < X ≦ 1000)”. Also, the “IC50 D6” value in assay [1] is “C (200 < X ≦ 1000)”. The “IC50 W2” value in assay [2] is on record as “C (200 < X ≦ 1000)”.

As to `CC[C@H]1OC(=O)[C@H](C)[C@@H](O[C@H]2C[C@@](C)(OC)[C@@H](O)[C@H](C)O2)[C@H](C)[C@@H](O[C@@H]2O[C@H](C)C[C@H](N(C)C)[C@H]2O)[C@](C)(O)C[C@@H](C)CN(CCC(=O)N[C@@H](C)c2cccc3ccccc23)[C@H](C)[C@@H](O)[C@]1(C)O` [Example 42], the half-maximal inhibitory concentration (IC50) in the assay with P. falciparum TM91C235 is less than 0.1 µg/mL; in assay [1] it was 0.1 to 0.2 µg/mL (≈ 0.104 to 0.208 µM); in assay [2], less than 0.1 µg/mL.

In the case of `CC[C@H]1OC(=O)[C@H](C)[C@@H](O)[C@H](C)[C@@H](O[C@@H]2O[C@H](C)C[C@H](N(C)C)[C@H]2O)[C@](C)(O)C[C@@H](C)CN(CCCNc2ccnc3ccccc23)[C@H](C)[C@@H](O)[C@]1(C)O` [Example 24, 9a-[3-(Quinolin-4-yl-amino)propyl]-3-O-decladinosyl-9-deoxo-9-dihydro-9a-aza-9a-homoerythromycin A], the 50% inhibitory concentration (IC50) with P. falciparum TM91C235 fell in the range of 0.2 to 1 µg/mL (≈ 0.263 to 1.31 µM); in assay [1], 0.1 to 0.2 µg/mL (≈ 0.131 to 0.263 µM); in assay [2] it was 0.1 to 0.2 µg/mL (≈ 0.131 to 0.263 µM).

Turning to `CC[C@H]1OC(=O)[C@H](C)[C@@H](O[C@H]2C[C@@](C)(OC)[C@@H](O)[C@H](C)O2)[C@H](C)[C@@H](O[C@@H]2O[C@H](C)C[C@H](N(C)C)[C@H]2O)[C@](C)(O)C[C@@H](C)CN(CCCNCCc2ccccc2)[C@H](C)[C@@H](O)[C@]1(C)O` [Example 20, 9a-{3-[(2-Phenylethyl)amino]propyl}-9-deoxo-9-dihydro-9a-aza-9a-homoerythromycin A], the IC50 in the assay on P. falciparum TM91C235 is less than 0.1 µg/mL; in assay [1] it was 0.2 to 1 µg/mL (≈ 0.223 to 1.12 µM); in assay [2], less than 0.1 µg/mL.

As to `CC[C@H]1OC(=O)[C@H](C)[C@@H](O[C@H]2C[C@@](C)(OC)[C@@H](O)[C@H](C)O2)[C@H](C)[C@@H](O[C@@H]2O[C@H](C)C[C@H](N(C)C)[C@H]2O)[C@](C)(O)C[C@@H](C)CN(CCCNCc2cnc3ccccc3c2)[C@H](C)[C@@H](O)[C@]1(C)O` [Example 4, 9a-{3-[(Quinolin-3-yl-methyl)amino]propyl}-9-deoxo-9-dihydro-9a-aza-9a-homoerythromycin A], the half-maximal inhibitory concentration (IC50) was less than 0.1 µg/mL with P. falciparum TM91C235, 0.1 to 0.2 µg/mL (≈ 0.107 to 0.214 µM) in assay [1] and less than 0.1 µg/mL in assay [2].
